Common to all, as to test: NCI tumour cell line growth inhibition, 48 h
Assay [1] concerns IGROV1 ovarian.
For assay [2], the system named is DU-145 prostate.
Assay [3] deals with U251 CNS.
In assay [4] the test system is SK-MEL-5 melanoma.
The subject of assay [5] is COLO 205 colon.
Assay [6] has as its system ACHN renal.
Assay [7] relates to OVCAR-4 ovarian.
Assay [8] concerns OVCAR-8 ovarian.
Assay [9] has as its system NCI-H460 lung.
Assay [10] concerns SK-OV-3 ovarian.
Assay [11] has as its system NCI/ADR-RES ovarian.
The test system of assay [12] is NCI-H23 lung.
For assay [13], the system named is MDA-N.

The structures appear in SMILES notation. Where “and” joins values, the source holds several entries; their conditions need not be identical. Equal entries are not always repeated.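 The compound was tested at five concentrations on cells cultured in 96-well plates, with a 48-hour exposure period. GI50 = concentration required for 50% inhibition of growth. The concentration for full growth arrest is given as TGI.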

Regarding `Cc1c2ccccc2c(/C=N/NC(=O)CSCC(=O)N/N=C/c2c3ccccc3c(C)c3ccccc23)c2ccccc12`, the TGI in [1] was greater than 100 µM; in assay [2] it was greater than 100 µM; in assay [3], greater than 57.6 µM; in assay [4] it was greater than 100 µM; in assay [5], greater than 100 µM; in assay [6] it was greater than 89 µM. Moreover, the TGI in [7] was greater than 100 µM; in assay [8] it was greater than 86.4 µM; in assay [9], greater than 100 µM; in [10], greater than 100 µM; in assay [11], greater than 100 µM; in assay [12], 50.7 µM. For the same compound, in assay [5], the GI50 was greater than 100 µM.
Turning to `COc1ccc(/C=C2\C(=O)N(C(=O)c3ccc(NC(C)=O)cc3)N=C2C)cc1OC`, the TGI in assay [4], in assay [5], in [6], in [7], in assay [8] and in assay [9] was greater than 100 µM each time. The compound also gave a TGI in [12] greater than 100 µM.
As to `Cn1c2ccccc2n2c(=O)c(-c3ccc(Cl)cc3)nnc12`, the TGI in assay [1], in assay [13], in assay [2], in assay [3], in assay [4] and in assay [5] was greater than 100 µM throughout. Besides, the TGI in assay [6], in [7], in assay [8], in assay [9], in [11] and in assay [12] was greater than 100 µM throughout.
Turning to `CCOc1cc2c(cc1OC)c[n+](C)c1c3cc(OC)c(OC)cc3ccc21`, the TGI is greater than 100 µM in [1]; greater than 48.2 µM in assay [3]; greater than 100 µM in [4]; greater than 100 µM in [5]; greater than 100 µM in [6]; greater than 100 µM in assay [7]. The TGI in assay [8], in [9], in [10] and in assay [12] was greater than 100 µM in each case.
Take `CC(C)(C)c1ccc(O)c(C(O)c2ccccn2)c1` (stereo not given): the TGI in assay [13], in assay [2], in assay [3], in assay [5], in assay [6] and in assay [8] was greater than 100 µM each time. Besides, the TGI in assay [9], in [11] and in assay [12] was greater than 100 µM each time.
In the case of `O=c1[nH]nc(-c2ccc3ccccc3c2)[nH]1`, the TGI in [1], in [13], in [2], in assay [3], in [5] and in assay [6] was greater than 100 µM throughout. Moreover, the TGI in assay [7], in assay [8], in assay [9], in [11] and in [12] was greater than 100 µM each time.
For `OC1C2CN3CCN(C2)CC1(c1ccccc1)C3` (stereo not given), the TGI in [1], in assay [13], in assay [2], in assay [3], in [4] and in [5] was greater than 100 µM each time. For the same compound, the TGI in assay [6], in [7], in [8], in [11] and in assay [12] was greater than 100 µM in each case.
As to `CC(C)C(Sc1nc(-c2ccccc2)c(-c2ccccc2)[nH]1)C(=O)N/N=C/c1ccc(Cl)cc1` (stereo not given), the TGI in assay [1] is 48.8 µM; in [3] it was 39.5 µM; in assay [4] it was 30.5 µM; in [5], 35.5 µM; in assay [6], greater than 100 µM; in [7], 98.4 µM. Moreover, the TGI in assay [8] came out at 53.6 µM; in assay [9] it was 52.8 µM; in assay [10], 67 µM; in assay [12] it was 52.8 µM.
As to `CC(C)(C)OC(=O)C1C(=O)NC(=O)CC1C(OCc1ccccc1)C(OCc1ccccc1)C(COCc1ccccc1)OCc1ccccc1` (stereo not given), the TGI in assay [1], in assay [13], in [2], in assay [3], in assay [4] and in [5] was greater than 100 µM in each case. Besides, the TGI in assay [6], in assay [7], in assay [8], in assay [9], in assay [11] and in assay [12] was greater than 100 µM each time. Further, the GI50 is 68 µM and 14.4 µM in assay [3]; > 100 µM and 28.4 µM in assay [4]; > 100 µM and 37.3 µM in [9].
For the compound `C[C@]12CC[C@H]3[C@@H](CC=C4C[C@@H](N5CCCC5)CC[C@@]43C)[C@@H]1C/C(=C\c1ccc([N+](=O)[O-])cc1)[C@@H]2O`, the TGI in assay [1] was found to be 28.2 µM; in assay [2], 34.7 µM; in [3], 25.2 µM; in assay [4] it was 28.3 µM; in assay [5], 32.6 µM; in assay [6] it was 29.3 µM. The TGI is 25.4 µM in assay [7]; greater than 100 µM in [9]; 30.1 µM in assay [10]; 43.4 µM in [11]; 37.4 µM in [12].
Take `Cc1cnoc1/N=C1\C=C(Nc2oncc2C)C(=O)c2ccccc21`: the TGI in assay [1], in assay [3], in assay [4], in [5], in assay [6] and in [7] was greater than 100 µM in each case. Besides, the TGI in [8], in assay [9], in [10] and in assay [12] was greater than 100 µM each time.
In the case of `CN1CCN(c2n[nH]c(=O)c3c2nnn3Cc2ccccc2)CC1`, the TGI in [13] is 40.1 µM; in assay [2], greater than 100 µM; in assay [3] it was greater than 100 µM; in assay [4], greater than 100 µM; in [5], greater than 100 µM; in assay [6], greater than 100 µM. Also, the TGI in [7], in assay [8], in assay [9], in assay [11] and in assay [12] was greater than 100 µM in each case.

Source of the values: PubChem BioAssay (NCI).
